What was measured:
[1] = system: Myzus persicae; assay: Myzus persicae test (cabbage leaf dip, kill rate, Colby synergy); assay type: in vivo
[2] = system: Phaedon cochleariae larvae; assay: Phaedon cochleariae larvae test (cabbage leaf dip, kill rate, Colby synergy)

Cn1cc(C(=O)Nc2ccccc2C2CC2C2CC2)c(C(F)F)n1 (stereo not drawn) [Compound (I-4)]
0%: Kill in % after 1d ([1]; Table A1, 200 ppm) | Kill in % after 1d ([1]; Table A2, 200 ppm) | Kill in % after 4d ([2]; Table B1, 200 ppm) | Kill in % after 6d ([2]; Table B2, 200 ppm, after 6 d) | Kill in % after 4d ([2]; Table B3, 200 ppm) | Kill in % after 4d ([2]; Table B3, 400 ppm)
